Source: ChEMBL document CHEMBL1137527, “Synthesis and biological evaluation of norcantharidin analogues: towards PP1 selectivity” (Bioorg Med Chem, 2007)

Key:
[1] = Inhibition of PP1 in rabbit skeletal muscle; type: tissue-based, Oryctolagus cuniculus, Muscle tissue
[2] = Inhibition of PP2A in human red blood cells; type: cell-based
[3] = Selectivity ratio of IC50 for rabbit skeletal muscle PP1 over IC50 for human PP2A; type: tissue-based; details: Muscle tissue
[4] = (§1) Inhibition of bovine brain PP2B; design: species or system Bos taurus
[5] = Selectivity ratio of IC50 for rabbit skeletal muscle PP1 over IC50 for bovine brain PP2B; type: tissue-based; details: Muscle tissue
Bos taurus = organism: Bos taurus; assay: as §1

SMILES	IC50 [1] [µM]	IC50 [2] [µM]	Ratio IC50 [3]	IC50 [4] [µM]	Ratio IC50 [5]	IC50 (Bos taurus) [µM]
CSc1ccccc1NC(=O)C1C(C(=O)O)[C@H]2CC[C@@H]1O2 (stereo partly specified)	23	33	0.7	–	–	–
O=C(NCc1ccc(F)c(F)c1)C1C(C(=O)O)[C@H]2CC[C@@H]1O2 (stereo partly specified)	26	26	1	–	–	–
COc1ccc(NC(=O)C2C(C(=O)O)[C@H]3CC[C@@H]2O3)cc1 (stereo partly specified)	15	16	0.94	–	–	–
O=C(NCCCCc1ccccc1)C1C(C(=O)O)[C@H]2CC[C@@H]1O2 (stereo partly specified)	75	95	0.79	–	–	–
O=C(Nc1ccc(N2CCOCC2)cc1)C1C(C(=O)O)[C@H]2CC[C@@H]1O2 (stereo partly specified)	6.5	7.9	0.82	42	0.15	–
C#Cc1cccc(NC(=O)C2C(C(=O)O)[C@H]3CC[C@@H]2O3)c1 (stereo partly specified)	17	18	0.94	–	–	–
CSc1ccc(NC(=O)C2C(C(=O)O)[C@H]3CC[C@@H]2O3)cc1 (stereo partly specified)	10	14	0.71	–	–	–
O=C(Nc1ccccc1CO)C1C(C(=O)O)[C@H]2CC[C@@H]1O2 (stereo partly specified)	36	39	0.92	–	–	–
CC(C)(C)c1ccc(NC(=O)C2C(C(=O)O)[C@H]3CC[C@@H]2O3)c(C(C)(C)C)c1 (stereo partly specified)	8.2	8.2	1	–	–	–
O=C(Nc1ccccc1)C1C(C(=O)O)[C@H]2CC[C@@H]1O2 (stereo partly specified)	24.3	7.7	3.2	–	–	–
CCc1ccccc1NC(=O)C1C(C(=O)O)[C@H]2CC[C@@H]1O2 (stereo partly specified)	51	24	2.12	–	–	–
CCCCCCOc1ccc(NC(=O)C2C(C(=O)O)[C@H]3CC[C@@H]2O3)cc1 (stereo partly specified)	11	15	0.73	–	–	–
C[C@@]12C(=O)OC(=O)[C@]1(C)[C@H]1CC[C@@H]2O1 [CANTHARIDIN]	7.6	0.99	7.7	–	> 0.07	> 100
CC(C)(C)c1ccc(NC(=O)C2C(C(=O)O)[C@H]3CC[C@@H]2O3)cc1 (stereo partly specified)	10	11	0.91	–	–	–
O=C(NCCN1CCOCC1)C1C(C(=O)O)[C@H]2CC[C@@H]1O2 (stereo partly specified)	30	43	0.7	–	–	–
CN(C)CCCNC(=O)C1C(C(=O)O)[C@H]2CC[C@@H]1O2 (stereo partly specified)	43	57	0.75	–	–	–
O=C(Nc1cccc(CO)c1)C1C(C(=O)O)[C@H]2CC[C@@H]1O2 (stereo partly specified)	15	7	2.14	–	–	–
O=C(NCCCc1ccccc1)C1C(C(=O)O)[C@H]2CC[C@@H]1O2 (stereo partly specified)	25	25	1	–	–	–
Cc1cccc(C)c1NC(=O)C1C(C(=O)O)[C@H]2CC[C@@H]1O2 (stereo partly specified)	56	72	0.78	–	–	–
O=C(NCc1ccc(C(F)(F)F)cc1)C1C(C(=O)O)[C@H]2CC[C@@H]1O2 (stereo partly specified)	16	20	0.8	–	–	–
Cc1cc(C)c(NC(=O)C2C(C(=O)O)[C@H]3CC[C@@H]2O3)c(C)c1 (stereo partly specified)	48	85	0.56	89	0.54	–
O=C1OC(=O)C2C3CCC(O3)C12 (stereo unspecified) [DEMETHYL-CANTHARIDIN]	10.3	2.69	3.8	31	0.33	–
Cc1cccc(NC(=O)C2C(C(=O)O)[C@H]3CC[C@@H]2O3)c1C (stereo partly specified)	17	18	0.94	–	–	–
O=C(Nc1ccc2ccccc2c1)C1C(C(=O)O)[C@H]2CC[C@@H]1O2 (stereo partly specified)	14	15	0.93	–	–	–
O=C(NCc1ccccc1)C1C(C(=O)O)[C@H]2CC[C@@H]1O2 (stereo partly specified)	35	12	2.9	–	–	–
CN(C)CCNC(=O)C1C(C(=O)O)[C@H]2CC[C@@H]1O2 (stereo partly specified)	67	> 100	< 0.67	–	–	–
